Assay results as given in patent US9063123B2, “Transgenic mice expressing human toll-like receptor 8” (Dynavax Technologies Corporation, priority 2011, dated 2015).

Tests used:
Type in all cases: cell-based
human monocytes = test: Cytokine production by human monocytes stimulated with TLR7/TLR8 RNA PN (ELISA); settings: 2×10^5 human monocytes, 20, 100 or 200 μg/mL, 24 hours, compared with PBMCs
Description: (§1) PN-based TLR8 ligand stabilized immunomodulatory RNA (5′-M2[…]-/glycerol/-[…]2-5′ (M2=C6-linker); SEQ ID NO:3) and PN-based TLR7 ligand stabilized immunomodulatory RNA (5′-[…]-/glycerol/-[…]-5′ (R=7-deazaguanosine); SEQ ID NO:2) were previously identified (Lan et al., PNAS 104:13750-13755, 2007). The effect of these TLR7— and TLR8-stimulating RNA PN was evaluated by measuring production of IL-6 and TNF-α in human peripheral blood mononuclear cells (PBMCs) and human monocytes (FIG. 2). 5×10^5 PBMCs or 2×10^5 monocytes from healthy human donors were stimulated with 20 μg/mL, 100 μg/mL, or 200 μg/mL of either TLR8 agonist or TLR7 agonist as indicated in FIG. 2. Twenty-four hours later supernatants were assessed for presence of inflammatory cytokines IL-6 and TNF-α by standard ELISA procedure.

Mouse PBMCs = test: IL-12 and TNF-α production by mouse PBMCs (ELISA); settings: 5×10^5 cells from 129 wt and TLR7KO mice, 100 μg/ml
Description: (§2) The effect of TLR7 and TLR8-stimulating RNA PNs was further evaluated in mouse cells by measuring IL-12 and TNF-α production (FIG. 4). Mouse splenocytes and PBMCs were prepared from 129 wt mice and TLR7KO mice, and 5×10^5 cells were stimulated with 100 μg/ml of either TLR8 or TLR7 agonist as indicated in FIG. 4. IL-12 and TNF-α were measured by ELISA using standard techniques.

[1] = biological target: T1, human TLR8 expressed from the transgene in TLR8TGCL8 mice (Homo sapiens, UniProt Q9NR97); test: Cytokine production by bone marrow cells from TLR8TGCL8 transgenic mice (ELISA); settings: 5×10^5 bone marrow cells from TLR8TGCL8 mice vs C57BL/6 WT, 100 or 50 μg/mL, 24 hours
T1 construct: the human BAC carrying TLR8 gene was obtained from the RPCIB-753 BAC library; expressed in transfected cells; host or cells: Blood cells, bone marrow cells and PBMC of hTLR8 transgenic mice, and the whole animals; The mice came from C57BL/6NTac ES cells transfected with the BAC: the Clone 8 germline line and chimeras
T1 sequence (Q9NR97 27-1041): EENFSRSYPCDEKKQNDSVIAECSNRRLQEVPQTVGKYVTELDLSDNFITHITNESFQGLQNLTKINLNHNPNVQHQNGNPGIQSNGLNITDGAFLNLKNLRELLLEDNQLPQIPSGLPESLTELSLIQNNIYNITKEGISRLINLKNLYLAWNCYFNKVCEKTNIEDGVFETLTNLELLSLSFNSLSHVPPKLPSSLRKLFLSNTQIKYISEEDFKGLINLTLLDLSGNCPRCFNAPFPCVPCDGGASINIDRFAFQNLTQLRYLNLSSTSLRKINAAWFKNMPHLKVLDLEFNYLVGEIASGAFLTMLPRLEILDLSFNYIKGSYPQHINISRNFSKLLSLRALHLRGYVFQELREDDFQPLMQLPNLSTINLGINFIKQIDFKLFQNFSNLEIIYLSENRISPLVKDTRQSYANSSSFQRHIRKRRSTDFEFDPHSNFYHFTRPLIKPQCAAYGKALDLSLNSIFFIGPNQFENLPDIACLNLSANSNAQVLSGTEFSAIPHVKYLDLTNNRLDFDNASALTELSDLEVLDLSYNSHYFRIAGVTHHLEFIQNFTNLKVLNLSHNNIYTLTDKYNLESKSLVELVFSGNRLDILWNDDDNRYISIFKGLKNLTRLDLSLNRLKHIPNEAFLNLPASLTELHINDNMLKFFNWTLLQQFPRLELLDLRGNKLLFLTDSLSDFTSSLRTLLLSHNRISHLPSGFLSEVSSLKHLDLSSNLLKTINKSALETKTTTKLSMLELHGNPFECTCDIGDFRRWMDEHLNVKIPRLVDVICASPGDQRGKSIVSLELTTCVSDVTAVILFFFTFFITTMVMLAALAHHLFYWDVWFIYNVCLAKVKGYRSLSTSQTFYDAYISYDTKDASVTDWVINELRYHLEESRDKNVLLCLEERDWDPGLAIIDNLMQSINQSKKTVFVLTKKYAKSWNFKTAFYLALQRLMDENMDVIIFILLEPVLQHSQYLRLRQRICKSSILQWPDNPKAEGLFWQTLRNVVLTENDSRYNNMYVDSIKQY
Text: (§3) PN-based TLR8 ligand stabilized immunomodulatory RNA (5′-M2[…]-/glycerol/-[…]2-5′ (M2=C6-linker); SEQ ID NO:3) and PN-based TLR7 ligand stabilized immunomodulatory RNA (5′-[…]-/glycerol/-[…]-5′ (R=7-deazaguanosine); SEQ ID NO:2) were previously identified (Lan et al., PNAS 104:13750-13755, 2007). To confirm that human TLR8 expressed from the transgene in TLR8TGCL8 mice is functional and sensitive to stimulation, the effect of TLR8-stimulating RNA PN (SEQ ID NO:3) on cytokine production was assessed. 5×10^5 blood cells from TLR8TGCL8 transgenic mice or C57BL/6 WT animals were stimulated with TLR8 agonist at different concentrations as shown in FIG. 13. 24 hours later supernatants were harvested and assayed for mouse IL-12, TNF-α and IL-6 using standard ELISA procedures. In addition, 5×10^5 bone marrow cells from TLR8TGCL8 transgenic mice or C57BL/6 WT animals were stimulated with TLR8 agonist (SEQ ID NO:3) at different concentrations as shown in FIG. 14. Mouse TNF-α and IL-6 production was assayed in supernatants harvested after 24 hours.

human pDCs = test: Cytokine production by human pDCs stimulated with TLR7/TLR8 RNA PN (ELISA); settings: 1×10^5 human pDCs (negative for TLR8), 100 μg/mL, 24 hours
Description: The effect of TLR7 and TLR8-stimulating RNA PN were also evaluated in human pDCs by measuring production of IL-6, TNF-α, and IFN-α. […] 1×10^5 pDCs from healthy human donors were stimulated with 100 μg/mL of either TLR8 agonist or TLR7 agonist (Lan et al., PNAS 104:13750-13755, 2007) or medium alone as indicated in FIG. 3. Twenty-four hours later supernatants were assessed for presence of inflammatory cytokines IL-6, TNF-α and IFN-α by standard ELISA procedure.

[2] = system: human peripheral blood mononuclear cells (PBMCs); test: Cytokine production by human PBMCs stimulated with TLR7/TLR8 RNA PN (ELISA); settings: 5×10^5 human PBMCs, 20, 100 or 200 μg/mL, 24 hours
Description: as §1

[3] = biological target: T1, human TLR8 expressed from the transgene in TLR8TGCL8 mice; test: Cytokine production by blood cells from TLR8TGCL8 transgenic mice (ELISA); settings: 5×10^5 blood cells from TLR8TGCL8 mice vs C57BL/6 WT, 200 or 100 μg/mL, 24 hours
Text: as §3

Mouse splenocytes = test: IL-12 and TNF-α production by mouse splenocytes (ELISA); settings: 5×10^5 cells from 129 wt and TLR7KO mice, 100 μg/ml
Description: as §2

Substance | production of IL-6 and TNF-α in monocytes (human monocytes) | stimulation of mouse PBMCs (IL-12 and TNF-α production) (Mouse PBMCs) | mouse TNF-α and IL-6 production by bone marrow cells [1] | stimulation of pDCs (IL-6, TNF-α and IFN-α production) (human pDCs) | production of IL-6 and TNF-α in PBMCs [2] | mouse IL-12, TNF-α and IL-6 production by blood cells [3] | stimulation of mouse splenocytes (IL-12 and TNF-α production) (Mouse splenocytes)
5′-M2UGCUGCUUGUG-/glycerol/-GUGUUCGUCGUM2-5′ (M2=C6-linker) (NUGCUGCUUGUGNGUGUUCGUCGUN; listed as RNA, chemistry not fully specified) [TLR8 agonist, PN-based TLR8 ligand stabilized immunomodulatory RNA, previously identified (Lan et al., PNAS 2007)] | to a lesser extent | did not stimulate | Only cells from transgenic animals responded | did not stimulate | stimulated production | Only cells from transgenic animals responded | did not stimulate
5′-URCURCUUCUR-/glycerol/-RUCUUCRUCRU-5′ (R=7-deazaguanosine) [TLR7 agonist] | to a lesser extent |  |  |  | stimulated production |  | 
